Legend:
[1] = biological target: GDP-bound NRAS wild-type protein (Homo sapiens, UniProt P01111); assay: Binding to NRAS by surface plasmon resonance (SPR), KD and KD ratio to KRAS; conditions: ratio of KD value for GDP-bound NRAS wild-type protein to KD value for KRAS (SPR)
Procedure, shortened: (§1)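 GDP-bound biotin-Avi RAS captured at ~100–300 RU, 30°C, pH 7.4 HBS containing 10 µM GDP, 10 mM MgCl2, 1 mM DTT, 0.01% Tween 20 and 4% DMSO. KD by 1:1 fitting.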

[2] = biological target: HRAS wild-type protein (Homo sapiens, UniProt P01112); assay: Binding to HRAS by surface plasmon resonance (SPR), KD and KD ratio to KRAS; conditions: ratio of KD value for HRAS wild-type protein to KD value for KRAS (SPR)
Sequence of HRAS wild-type protein (P01112 whole entry): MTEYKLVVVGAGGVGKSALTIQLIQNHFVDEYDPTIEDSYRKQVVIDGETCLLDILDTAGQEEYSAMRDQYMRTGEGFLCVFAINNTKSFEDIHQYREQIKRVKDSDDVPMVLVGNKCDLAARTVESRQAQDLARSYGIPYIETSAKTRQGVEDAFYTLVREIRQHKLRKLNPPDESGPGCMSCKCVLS
Procedure, shortened: as §1

[3] = tested on: human lung cancer strain NCI-H441; assay type: cell-based
Procedure, shortened: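 Readout: […] after the ATP-based reagent. Compound: serial dilutions in dimethyl sulfoxide.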

Sequence of GDP-bound NRAS wild-type protein (P01111 whole entry): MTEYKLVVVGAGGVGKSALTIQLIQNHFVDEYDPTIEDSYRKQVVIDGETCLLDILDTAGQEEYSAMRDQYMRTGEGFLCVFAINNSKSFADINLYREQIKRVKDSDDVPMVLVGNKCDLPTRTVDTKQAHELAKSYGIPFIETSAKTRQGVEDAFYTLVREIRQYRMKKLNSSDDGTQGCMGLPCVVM

Structure (SMILES)	NRAS /KRAS [1]	HRAS /KRAS [2]	IC50 [3] [nM]
CCO[C@@H]1C[C@H]2C(=O)NC3(CCC3)C(=O)N(C)[C@@H](C3CCCC3)C(=O)N(C)[C@H](C(=O)N(C)CC)CC(=O)N(C)[C@@H](CC)C(=O)N[C@@H]([C@@H](C)CC)C(=O)N(C)CC(=O)N(C)[C@H]3C/C=C\CCN(C3=O)[C@@H](Cc3ccc(C)cc3)C(=O)N(C)CC(=O)N[C@@H](CCc3ccc(C(F)(F)F)c(OC)c3)C(=O)N2C1 [PP1869]	A (a compound having 10 or more and less than 20 is denoted as A)	A (a compound having 10 or more and less than 20 is denoted as A)	36.4
CC[C@H](C)[C@@H]1NC(=O)[C@H](CC)N(C)C(=O)C[C@@H](C(=O)N(C)CC)N(C)C(=O)[C@H](C2CCCC2)N(C)C(=O)C2(CC(C)(C)C2)NC(=O)[C@@H]2C[C@@H](C)CN2C(=O)[C@H](CCc2ccc(C(F)(F)F)c(OC)c2)NC(=O)CN(C)C(=O)[C@H](Cc2ccc(C)cc2)N2CC/C=C\C[C@@H](C2=O)N(C)C(=O)CN(C)C1=O [PP1870]	A (a compound having 10 or more and less than 20 is denoted as A)	A (a compound having 10 or more and less than 20 is denoted as A)	12.4
CCC[C@H]1C(=O)N[C@@H]([C@@H](C)CC)C(=O)N(C)CC(=O)N(C)[C@H]2C/C=C\CCN(C2=O)[C@@H](Cc2ccc(C)cc2)C(=O)N(C)CC(=O)N[C@@H](CCc2ccc(C(F)(F)F)c(OC)c2)C(=O)N2C[C@H](OCC)C[C@H]2C(=O)NC2(CCC2)C(=O)N(C)[C@@H](C2CCCC2)C(=O)N(C)[C@H](C(=O)N(C)C)CC(=O)N1C [PP1871]	A (a compound having 10 or more and less than 20 is denoted as A)	A (a compound having 10 or more and less than 20 is denoted as A)	13.1
CCO[C@@H]1C[C@H]2C(=O)NC3(CC(C)(C)C3)C(=O)N(C)[C@@H](C3CCCC3)C(=O)N(C)[C@H](C(=O)N(C)CC)CC(=O)N(C)[C@@H](CC)C(=O)N[C@@H]([C@@H](C)CC)C(=O)N(C)CC(=O)N(C)[C@H]3C/C=C\CCN(C3=O)[C@@H](Cc3ccc(C)cc3)C(=O)N(C)CC(=O)N[C@@H](CCc3ccc(C(F)(F)F)c(OC)c3)C(=O)N2C1 [PP1872]	A (a compound having 10 or more and less than 20 is denoted as A)	A (a compound having 10 or more and less than 20 is denoted as A)	12.4
CCO[C@@H]1C[C@H]2C(=O)NC3(CC(C)(C)C3)C(=O)N(C)[C@@H](C3CCCC3)C(=O)N(C)[C@H](C(=O)N(C)C)CC(=O)N(C)[C@@H](CC)C(=O)N[C@@H]([C@@H](C)CC)C(=O)N(C)CC(=O)N(C)[C@H]3C/C=C\CCN(C3=O)[C@@H](Cc3ccc(C)cc3)C(=O)N(C)CC(=O)N[C@@H](CCc3ccc(C(F)(F)F)c(OC)c3)C(=O)N2C1 [PP1873]	A (a compound having 10 or more and less than 20 is denoted as A)	B (a compound having 3 or more and less than 10 is denoted as B)	8.5
CC[C@H](C)[C@@H]1NC(=O)[C@H](CC)N(C)C(=O)C[C@@H](C(=O)N(C)CC)N(C)C(=O)[C@H](C2CCCC2)N(C)C(=O)C2(CC(C)(C)C2)NC(=O)[C@@H]2C[C@H](C)CN2C(=O)[C@H](CCc2ccc(C(F)(F)F)c(Cl)c2)NC(=O)CN(C)C(=O)[C@H](Cc2ccc(C)cc2)N2CC/C=C\C[C@@H](C2=O)N(C)C(=O)CN(C)C1=O [PP1874]	A (a compound having 10 or more and less than 20 is denoted as A)	A (a compound having 10 or more and less than 20 is denoted as A)	9.9
CC[C@H](C)[C@@H]1NC(=O)[C@H](CC)N(C)C(=O)C[C@@H](C(=O)N(C)CC)N(C)C(=O)[C@H](C2CCCC2)N(C)C(=O)C2(CC(C)(C)C2)NC(=O)[C@@H]2C[C@@H](C)CN2C(=O)[C@H](CCc2ccc(C(F)(F)F)c(Cl)c2)NC(=O)CN(C)C(=O)[C@H](Cc2ccc(C)cc2)N2CC/C=C\C[C@@H](C2=O)N(C)C(=O)CN(C)C1=O [PP1876]	A (a compound having 10 or more and less than 20 is denoted as A)	A (a compound having 10 or more and less than 20 is denoted as A)	23
